The test system of experiment [1] is MIA PaCa-2. Description: Cytotoxicity against human MIAPaCa2 cells assessed as reduction in cell number after 24 hrs by MTT assay. The class given is functional, cell-based. The settings on record: MIA PaCa-2, 24 h. For orientation: Formazan colour is commonly taken as a measure of viable cells.
In experiment [2] the test system is MIA PaCa-2. Put plainly: Cytotoxicity against human MIAPaCa2 cells assessed as reduction in cell number after 96 hrs by MTT assay. The class given is functional, cell-based. The settings on record: MIA PaCa-2, 96 h.
The test system of experiment [3] is HCT-116. Description: Cytotoxicity against human HCT116 cells assessed as reduction in cell number after 96 hrs by MTT assay. The class given is functional, cell-based. To be noted: HCT-116, 96 h.
Experiment [4] concerns HCT-116. Put plainly: Cytotoxicity against human HCT116 cells assessed as reduction in cell number after 24 hrs by MTT assay. Type of experiment: functional, cell-based. The settings on record: HCT-116, 24 h.
In experiment [5] the target is T1, NAD(P)H dehydrogenase [quinone] 1 (Homo sapiens, UniProt P15559).
Description: Inhibition of human recombinant NQO1
For experiment [6], the target named is T1, NAD(P)H dehydrogenase [quinone] 1. The source holds these as a separate data set.
Description: Inhibition of human recombinant NQO1 in presence of BSA

Where only a bound is given, the exact number is not on record here.

T1 sequence (P15559 whole entry): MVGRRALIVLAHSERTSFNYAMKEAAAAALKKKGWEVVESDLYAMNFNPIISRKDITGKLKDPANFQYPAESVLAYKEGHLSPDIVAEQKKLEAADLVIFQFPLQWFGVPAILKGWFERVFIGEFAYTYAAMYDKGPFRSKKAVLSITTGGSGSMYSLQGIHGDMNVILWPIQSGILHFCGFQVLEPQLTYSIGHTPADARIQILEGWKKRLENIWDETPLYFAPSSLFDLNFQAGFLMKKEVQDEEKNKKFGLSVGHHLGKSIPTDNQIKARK

The IC50 is the point on the concentration scale where inhibition reaches its midpoint. For the compound `COc1cc2oc(=O)c(Cc3c(O)c4cc(OC)c(OC)cc4oc3=O)c(O)c2cc1OC`, the half-maximal inhibitory concentration (IC50) in experiment [1], in experiment [2], in experiment [3] and in experiment [4] was over 400 µM in each case.
Consider `O=c1oc2ccccc2c(O)c1Cc1c(O)c2ccccc2oc1=O` [DICUMAROL], for which the IC50 was determined as 90 µM in experiment [1], 52 µM in experiment [2], 19 µM in experiment [3] and 103 µM in experiment [4].
Regarding `COc1ccc2oc(=O)c(Cc3c(O)c4cc(OC)ccc4oc3=O)c(O)c2c1`, the IC50 in experiment [5] amounted to 0.011 µM; in experiment [1], 300 µM; in experiment [2], 405 µM; in experiment [3], 48 µM; in experiment [6], 3.3 µM; in experiment [4], 196 µM.
Regarding `Cc1ccc(Cc2c(O)c3cc(C)c(C)cc3oc2=O)cc1C`, the concentration for half-maximal inhibition (IC50) in experiment [1] is over 400 µM; in experiment [2], 407 µM; in experiment [3], 176 µM; in experiment [4] it was over 400 µM.
For `O=c1oc2ccccc2c(O)c1Cc1ccccc1`, the IC50 came to 0.144 µM in experiment [5] and 3.2 µM in experiment [6].
As to `COc1ccc2c(O)c(Cc3c(O)c4ccc(OC)cc4oc3=O)c(=O)oc2c1`, the IC50 in experiment [1] is 448 µM; in experiment [2] it was 303 µM; in experiment [3], 187 µM; in experiment [4], over 400 µM.
On the same counts, the results for `Cc1cc2oc(=O)c(Cc3ccccc3)c(O)c2cc1C` are over 400 µM, 267 µM, 178 µM and over 400 µM.
On the same counts, the results for `Cc1cc2oc(=O)c(Cc3ccc4ccccc4c3)c(O)c2cc1C` are 390 µM, 162 µM, 180 µM and 208 µM.
As for `O=c1oc2ccc(Cl)cc2c(O)c1Cc1c(O)c2cc(Cl)ccc2oc1=O`, the results for the IC50 in experiment [5] and in experiment [6] were 0.009 µM and 6.25 µM, respectively.
Take `Cc1cc2oc(=O)c(Cc3c(O)c4cc(C)c(C)cc4oc3=O)c(O)c2cc1C`: the IC50 in experiment [1] is 213 µM; in experiment [2], 106 µM; in experiment [3], 35 µM; in experiment [4] it was 201 µM.
Take `CCCC(c1c(O)c2ccccc2oc1=O)c1c(O)c2ccccc2oc1=O`: the figures for the IC50 in experiment [5] and in experiment [6] were 0.588 µM and 5.32 µM, respectively.
Turning to `Cc1cc2oc(=O)c(Cc3cccc4ccccc34)c(O)c2cc1C`, the IC50 is over 400 µM in experiment [1], 188 µM in experiment [2], 56 µM in experiment [3] and 160 µM in experiment [4].
Regarding `Cc1ccc2oc(=O)c(Cc3c(O)c4cc(C)ccc4oc3=O)c(O)c2c1`, the 50% inhibitory concentration (IC50) was found to be 0.014 µM in experiment [5] and 5.5 µM in experiment [6].
`Cc1ccc2c(O)c(Cc3c(O)c4ccc(C)c(C)c4oc3=O)c(=O)oc2c1C`: the 50% inhibitory concentration (IC50) in experiment [1] was determined as 359 µM; in experiment [2], 119 µM; in experiment [3], 35 µM; in experiment [4], 178 µM.
On the same counts, the results for `COc1cccc2oc(=O)c(Cc3c(O)c4c(OC)cccc4oc3=O)c(O)c12` are 390 µM, 350 µM, 80 µM and over 400 µM.

The values above are taken from ChEMBL document CHEMBL1154679, “Synthesis and biological evaluation of coumarin-based inhibitors of NAD(P)H: quinone oxidoreductase-1 (NQO1)” (J Med Chem, 2009).
